Reference: patent US11000033B2, “Ketone or oxime compound, and herbicide” (NISSAN CHEMICAL CORPORATION, priority 2014, dated 2021)

What was measured:
Type in all cases: in vivo
Galium spurium = assay: Test Example 5: herbicidal effect by foliage application, plastic box (symbol Q); settings: 320 g/ha, 3 weeks after application
How it was run: (§1)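 Sowing in sterilized diluvial soil, 14 days' greenhouse growth at 25° C. to 30° C., then uniform small-sprayer foliar application of aqueous emulsion dilution; plants scored three weeks afterwards.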

[1] = tested on: Echinochloa oryzacola Vasing.; assay: Test Example 1: herbicidal activity, application before weed generation in submerged conditions (symbol A); settings: application herbicide amount 320 g/ha
How it was run: (§2)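 Compound emulsion was diluted to a set herbicide amount and applied to the water surface on the sowing day, into submerged (4 cm) alluvial-soil pots sown with mixed weed seeds and transplanted 2.5-leaf rice. Pots were held in a 25–30 °C greenhouse, and weeds were scored 0–5 by herbicidal ratio after 3 weeks.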

Cyperus difformis = assay: Test Example 3: herbicidal effect by foliage application, Wagner pot (symbol E); settings: application herbicide amount 320 g/ha
How it was run: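 Rating at 3 weeks post-spray, by defined criteria. Treatment: emulsion diluted with water to a predetermined amount, applied evenly to foliage of 14-day-old plants raised in alluvial soil flooded 0.1–0.5 cm deep at 25–30 °C, rice co-sown.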

Scirpus juncoides = assay: Test Example 1: herbicidal activity, application before weed generation in submerged conditions (symbol B); settings: application herbicide amount 320 g/ha
How it was run: as §2

Alopecurus myosuroides [2] = assay: Test Example 4: herbicidal effect by soil treatment (symbol J); settings: application herbicide amount 320 g/ha
How it was run: (§3)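 Seeds were sown in sterilized diluvial soil, covered with about 1.5 cm of soil, and the soil surface was sprayed with a water-diluted emulsion of the compound at a predetermined rate. Plants grew in a greenhouse at 25° C. to 30° C.; effects were scored visually 3 weeks after application.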

corn = assay: Test Example 4: effect on crop by soil treatment (symbol c); settings: application herbicide amount 320 g/ha
How it was run: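 The test used sterilized diluvial soil. Seed was set down in spots and overlaid with about 1.5 cm of soil before growth in a greenhouse kept at 25° C. to 30° C.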

Setaria viridis = assay: Test Example 5: herbicidal effect by foliage application, plastic box (symbol G); settings: 320 g/ha, 3 weeks after application
How it was run: as §1

Lolium multiflorum Lam. = assay: Test Example 5: herbicidal effect by foliage application, plastic box (symbol K); settings: 320 g/ha, 3 weeks after application
How it was run: as §1

Alopecurus myosuroides [3] = assay: Test Example 5: herbicidal effect by foliage application, plastic box (symbol J); settings: 320 g/ha, 3 weeks after application
How it was run: as §1

Stellaria media = assay: Test Example 4: herbicidal effect by soil treatment (symbol P); settings: application herbicide amount 320 g/ha
How it was run: as §3

soybean = assay: Test Example 4: effect on crop by soil treatment (symbol d); settings: application herbicide amount 320 g/ha
How it was run: (§4)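 Seeds were sown in spots on sterilized diluvial soil in a plastic box and covered with about 1.5 cm of soil. Plants were then grown in a greenhouse at 25° C. to 30° C.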

rice = assay: Test Example 4: effect on crop by soil treatment (symbol b); settings: application herbicide amount 320 g/ha
How it was run: as §4

transplanted rice plant = assay: Test Example 1: effect on crop, application before weed generation in submerged conditions (symbol a); settings: application herbicide amount 320 g/ha
How it was run: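 Alluvial soil pots flooded to 4 cm water, sown with Echinochloa oryzacola, Scirpus juncoides and Monochoria vaginalis, then transplanted with 2.5 leaf stage rice seedlings; pre-emergence application. Greenhouse 25° C. to 30° C.; scored 0–5 by herbicidal ratio 3 weeks after application.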

wheat = assay: Test Example 4: effect on crop by soil treatment (symbol e); settings: application herbicide amount 320 g/ha
How it was run: as §4

CON=C(C)C1CC(O)=C(c2c(C)cc(C)cc2C)C1=O (mixture of isomers) [3-002]
Q: Galium spurium, herbicidal effect grade (Galium spurium): 0 (Herbicidal ratio of 5% or lower (almost no effect)) | Herbicidal effect grade, A: Echinochloa oryzacola Vasing. [1]: 0 (Herbicidal ratio of 5% or lower (almost no effect)) | herbicidal effect on E, grade 0-5 (Cyperus difformis): 0 (Herbicidal ratio of 5% or lower (almost no effect)) | Herbicidal effect grade, B: Scirpus juncoides (Scirpus juncoides): 0 (Herbicidal ratio of 5% or lower (almost no effect)) | J: Alopecurus myosuroides, herbicidal effect grade (Alopecurus myosuroides [2]): 0 (Herbicidal ratio of 5% or lower (almost no effect)) | c: corn, effect on crop grade (corn): 0 (Herbicidal ratio of 5% or lower (almost no effect)) | G: Setaria viridis, herbicidal effect grade (Setaria viridis): 2 (Herbicidal ratio of 20% or higher and lower than 40%) | K: Lolium multiflorum Lam., herbicidal effect grade (Lolium multiflorum Lam.): 1 (Herbicidal ratio of 5% or higher and lower than 20%) | J: Alopecurus myosuroides, herbicidal effect grade (Alopecurus myosuroides [3]): 0 (Herbicidal ratio of 5% or lower (almost no effect)) | P: Stellaria media, herbicidal effect grade (Stellaria media): 0 (Herbicidal ratio of 5% or lower (almost no effect)) | d: soybean, effect on crop grade (soybean): 0 (Herbicidal ratio of 5% or lower (almost no effect)) | b: directly sowed rice plant, effect on crop grade (rice): 0 (Herbicidal ratio of 5% or lower (almost no effect)) | Effect grade on crop, a: transplanted rice plant (transplanted rice plant): 0 (Herbicidal ratio of 5% or lower (almost no effect)) | e: wheat, effect on crop grade (wheat): 0 (Herbicidal ratio of 5% or lower (almost no effect))

CON=C(C)CC1CC(O)=C(c2c(C)cc(-n3cc(Cl)cn3)cc2C)C1=O (mixture of isomers) [6-004]
Q: Galium spurium, herbicidal effect grade (Galium spurium): 3 (Herbicidal ratio of 40% or higher and lower than 70%) | Herbicidal effect grade, A: Echinochloa oryzacola Vasing. [1]: 5 (Herbicidal ratio of 90% or more (almost completely withered)) | herbicidal effect on E, grade 0-5 (Cyperus difformis): 5 (Herbicidal ratio of 90% or more (almost completely withered)) | Herbicidal effect grade, B: Scirpus juncoides (Scirpus juncoides): 5 (Herbicidal ratio of 90% or more (almost completely withered)) | J: Alopecurus myosuroides, herbicidal effect grade (Alopecurus myosuroides [2]): 5 (Herbicidal ratio of 90% or more (almost completely withered)) | c: corn, effect on crop grade (corn): 2 (Herbicidal ratio of 20% or higher and lower than 40%) | G: Setaria viridis, herbicidal effect grade (Setaria viridis): 5 (Herbicidal ratio of 90% or more (almost completely withered)) | K: Lolium multiflorum Lam., herbicidal effect grade (Lolium multiflorum Lam.): 5 (Herbicidal ratio of 90% or more (almost completely withered)) | J: Alopecurus myosuroides, herbicidal effect grade (Alopecurus myosuroides [3]): 5 (Herbicidal ratio of 90% or more (almost completely withered)) | P: Stellaria media, herbicidal effect grade (Stellaria media): 0 (Herbicidal ratio of 5% or lower (almost no effect)) | d: soybean, effect on crop grade (soybean): 0 (Herbicidal ratio of 5% or lower (almost no effect)) | b: directly sowed rice plant, effect on crop grade (rice): 5 (Herbicidal ratio of 90% or more (almost completely withered)) | Effect grade on crop, a: transplanted rice plant (transplanted rice plant): 5 (Herbicidal ratio of 90% or more (almost completely withered)) | e: wheat, effect on crop grade (wheat): 0 (Herbicidal ratio of 5% or lower (almost no effect))

C#CCOC1=C(c2c(C)cc(C)cc2C)C(=O)C(CC(C)=NOC)C1 (stereo not shown) [1-008]
Q: Galium spurium, herbicidal effect grade (Galium spurium): 0 (Herbicidal ratio of 5% or lower (almost no effect)) | Herbicidal effect grade, A: Echinochloa oryzacola Vasing. [1]: 5 (Herbicidal ratio of 90% or more (almost completely withered)) | herbicidal effect on E, grade 0-5 (Cyperus difformis): 4 (Herbicidal ratio of 70% or higher and lower than 90%) | Herbicidal effect grade, B: Scirpus juncoides (Scirpus juncoides): 3 (Herbicidal ratio of 40% or higher and lower than 70%) | J (Alopecurus myosuroides) herbicidal effect grade (Alopecurus myosuroides [2]): 5 (Herbicidal ratio of 90% or more (almost completely withered)) | c (corn) effect on crop grade (corn): 0 (Herbicidal ratio of 5% or lower (almost no effect)) | G: Setaria viridis, herbicidal effect grade (Setaria viridis): 5 (Herbicidal ratio of 90% or more (almost completely withered)) | K: Lolium multiflorum Lam., herbicidal effect grade (Lolium multiflorum Lam.): 5 (Herbicidal ratio of 90% or more (almost completely withered)) | J: Alopecurus myosuroides, herbicidal effect grade (Alopecurus myosuroides [3]): 5 (Herbicidal ratio of 90% or more (almost completely withered)) | d (soybean) effect on crop grade (soybean): 0 (Herbicidal ratio of 5% or lower (almost no effect)) | b (directly sowed rice plant) effect on crop grade (rice): 3 (Herbicidal ratio of 40% or higher and lower than 70%) | Effect grade on crop, a: transplanted rice plant (transplanted rice plant): 0 (Herbicidal ratio of 5% or lower (almost no effect)) | e (wheat) effect on crop grade (wheat): 0 (Herbicidal ratio of 5% or lower (almost no effect))

Cc1cc(C)c(C2=C(O)CC(CC(=O)C(C)C)C2=O)c(C)c1 (stereo not shown) [2-016]
Q: Galium spurium, herbicidal effect grade (Galium spurium): 0 (Herbicidal ratio of 5% or lower (almost no effect)) | Herbicidal effect grade, A: Echinochloa oryzacola Vasing. [1]: 4 (Herbicidal ratio of 70% or higher and lower than 90%) | herbicidal effect on E, grade 0-5 (Cyperus difformis): 4 (Herbicidal ratio of 70% or higher and lower than 90%) | Herbicidal effect grade, B: Scirpus juncoides (Scirpus juncoides): 0 (Herbicidal ratio of 5% or lower (almost no effect)) | J: Alopecurus myosuroides, herbicidal effect grade (Alopecurus myosuroides [2]): 4 (Herbicidal ratio of 70% or higher and lower than 90%) | c: corn, effect on crop grade (corn): 3 (Herbicidal ratio of 40% or higher and lower than 70%) | G: Setaria viridis, herbicidal effect grade (Setaria viridis): 5 (Herbicidal ratio of 90% or more (almost completely withered)) | K: Lolium multiflorum Lam., herbicidal effect grade (Lolium multiflorum Lam.): 5 (Herbicidal ratio of 90% or more (almost completely withered)) | J: Alopecurus myosuroides, herbicidal effect grade (Alopecurus myosuroides [3]): 5 (Herbicidal ratio of 90% or more (almost completely withered)) | d: soybean, effect on crop grade (soybean): 0 (Herbicidal ratio of 5% or lower (almost no effect)) | b: directly sowed rice plant, effect on crop grade (rice): 5 (Herbicidal ratio of 90% or more (almost completely withered)) | Effect grade on crop, a: transplanted rice plant (transplanted rice plant): 4 (Herbicidal ratio of 70% or higher and lower than 90%) | e: wheat, effect on crop grade (wheat): 0 (Herbicidal ratio of 5% or lower (almost no effect))

CCC(=O)CCC1CC(OC)=C(c2c(C)cc(C)cc2C)C1=O (stereo not shown) [5-002]
Q: Galium spurium, herbicidal effect grade (Galium spurium): 0 (Herbicidal ratio of 5% or lower (almost no effect)) | Herbicidal effect grade, A: Echinochloa oryzacola Vasing. [1]: 0 (Herbicidal ratio of 5% or lower (almost no effect)) | herbicidal effect on E, grade 0-5 (Cyperus difformis): 0 (Herbicidal ratio of 5% or lower (almost no effect)) | Herbicidal effect grade, B: Scirpus juncoides (Scirpus juncoides): 0 (Herbicidal ratio of 5% or lower (almost no effect)) | J: Alopecurus myosuroides, herbicidal effect grade (Alopecurus myosuroides [2]): 0 (Herbicidal ratio of 5% or lower (almost no effect)) | c: corn, effect on crop grade (corn): 0 (Herbicidal ratio of 5% or lower (almost no effect)) | G: Setaria viridis, herbicidal effect grade (Setaria viridis): 0 (Herbicidal ratio of 5% or lower (almost no effect)) | K: Lolium multiflorum Lam., herbicidal effect grade (Lolium multiflorum Lam.): 0 (Herbicidal ratio of 5% or lower (almost no effect)) | J: Alopecurus myosuroides, herbicidal effect grade (Alopecurus myosuroides [3]): 0 (Herbicidal ratio of 5% or lower (almost no effect)) | d: soybean, effect on crop grade (soybean): 0 (Herbicidal ratio of 5% or lower (almost no effect)) | b: directly sowed rice plant, effect on crop grade (rice): 0 (Herbicidal ratio of 5% or lower (almost no effect)) | Effect grade on crop, a: transplanted rice plant (transplanted rice plant): 0 (Herbicidal ratio of 5% or lower (almost no effect)) | e: wheat, effect on crop grade (wheat): 0 (Herbicidal ratio of 5% or lower (almost no effect))
